# According to patent US20260158014A1, “METHODS OF ADMINISTERING VOXELOTOR” (Global Blood Therapeutics, Inc., priority 2021, published 2026):
# Experiments:
# CYP3A4 = CYP3A4 (Homo sapiens, UniProt P08684); assay: Clinical probe-substrate DDI study: midazolam; conditions: healthy subjects
# Protocol: The effect of voxelotor on the pharmacokinetics (PK) of a single dose of caffeine, warfarin sodium, omeprazole, and midazolam hydrochloride, which are probe substrates for cytochrome P450 (CYP)1A2, CYP2C9, CYP2C19, and CYP3A4, respectively, were studied in healthy subjects. During Period 1, subjects received a single dose of caffeine 100 mg, warfarin sodium 10 mg+vitamin K 10 mg, omeprazole 20 mg, and midazolam hydrochloride 2 mg on Day 1. During Period 2, subjects received voxelotor 900 mg QD on Days 1 and 2 followed by 600 mg QD on Day 3, a single dose of caffeine 100 mg, warfarin sodium 10 mg+vitamin K 10 mg, omeprazole 20 mg, and midazolam hydrochloride 2 mg on Day 4, and voxelotor 600 mg QD on Days 4 through 7.
# Whole blood and plasma concentrations of voxelotor and plasma concentrations of caffeine, paraxanthine, S-warfarin, omeprazole, 5-hydroxyomeprazole, midazolam, and 1-hydroxymidazolam were determined using validated assays.
# P-gp = P-gp (Homo sapiens, UniProt P08183); assay: Clinical DDI: voxelotor on digoxin; conditions: in vivo
# Sequence of P-gp (P08183 whole entry): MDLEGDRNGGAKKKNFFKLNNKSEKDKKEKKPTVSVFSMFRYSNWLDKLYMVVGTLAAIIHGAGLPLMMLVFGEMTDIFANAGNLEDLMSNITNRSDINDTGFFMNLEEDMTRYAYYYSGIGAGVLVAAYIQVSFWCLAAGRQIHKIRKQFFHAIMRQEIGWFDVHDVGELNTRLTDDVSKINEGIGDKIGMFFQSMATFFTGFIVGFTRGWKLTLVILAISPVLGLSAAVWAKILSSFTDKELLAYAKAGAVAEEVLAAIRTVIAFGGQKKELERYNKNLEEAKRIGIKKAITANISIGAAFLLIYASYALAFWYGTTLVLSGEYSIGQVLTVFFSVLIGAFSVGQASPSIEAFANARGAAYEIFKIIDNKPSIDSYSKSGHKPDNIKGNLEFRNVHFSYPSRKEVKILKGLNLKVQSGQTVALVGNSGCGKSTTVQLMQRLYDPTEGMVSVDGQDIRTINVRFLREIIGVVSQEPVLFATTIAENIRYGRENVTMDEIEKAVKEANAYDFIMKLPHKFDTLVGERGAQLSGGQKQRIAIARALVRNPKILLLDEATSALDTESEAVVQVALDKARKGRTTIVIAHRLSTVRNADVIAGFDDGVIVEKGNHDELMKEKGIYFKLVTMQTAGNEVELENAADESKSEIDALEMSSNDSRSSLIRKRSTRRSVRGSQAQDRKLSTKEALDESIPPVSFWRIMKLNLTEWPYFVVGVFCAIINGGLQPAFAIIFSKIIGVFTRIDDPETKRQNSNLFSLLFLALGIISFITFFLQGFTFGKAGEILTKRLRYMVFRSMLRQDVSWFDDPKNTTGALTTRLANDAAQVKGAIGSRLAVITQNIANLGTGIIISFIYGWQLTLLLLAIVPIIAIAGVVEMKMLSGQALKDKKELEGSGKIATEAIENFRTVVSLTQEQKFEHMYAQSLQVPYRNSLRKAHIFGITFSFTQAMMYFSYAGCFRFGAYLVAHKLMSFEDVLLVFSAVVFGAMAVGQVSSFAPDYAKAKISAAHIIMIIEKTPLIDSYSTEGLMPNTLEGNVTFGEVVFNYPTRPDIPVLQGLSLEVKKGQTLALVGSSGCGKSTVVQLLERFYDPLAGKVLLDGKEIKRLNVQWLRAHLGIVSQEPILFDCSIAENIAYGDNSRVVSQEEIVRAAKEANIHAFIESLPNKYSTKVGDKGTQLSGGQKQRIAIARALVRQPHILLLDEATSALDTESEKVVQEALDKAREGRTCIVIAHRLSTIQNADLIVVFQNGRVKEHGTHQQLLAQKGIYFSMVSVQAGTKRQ
# [1] = voxelotor 900 mg QD days 1-2, then 600 mg QD, midazolam hydrochloride 2 mg single dose
# Sequence of CYP3A4 (P08684 whole entry): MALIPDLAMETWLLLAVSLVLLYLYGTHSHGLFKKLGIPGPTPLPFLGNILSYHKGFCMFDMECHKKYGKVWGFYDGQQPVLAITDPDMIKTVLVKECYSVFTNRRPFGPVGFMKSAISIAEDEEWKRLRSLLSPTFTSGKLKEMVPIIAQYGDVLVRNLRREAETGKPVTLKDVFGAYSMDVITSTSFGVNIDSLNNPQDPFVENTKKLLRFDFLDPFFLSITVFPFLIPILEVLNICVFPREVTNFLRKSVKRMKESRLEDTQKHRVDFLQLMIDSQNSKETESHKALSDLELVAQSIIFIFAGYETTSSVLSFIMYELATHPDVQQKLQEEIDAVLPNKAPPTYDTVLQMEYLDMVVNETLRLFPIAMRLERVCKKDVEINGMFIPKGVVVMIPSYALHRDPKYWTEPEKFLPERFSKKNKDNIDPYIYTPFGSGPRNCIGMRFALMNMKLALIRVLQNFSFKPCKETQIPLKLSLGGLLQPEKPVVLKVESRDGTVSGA
compound,measurement,setting,value
OCc1ncc2n1-c1ccc(Cl)cc1C(c1ccccc1F)=NC2 [1′-hydroxy-midazolam],increase of overall exposure of midazolam metabolite in the presence of voxelotor,CYP3A4; [1],75%
C[C@H]1O[C@@H](O[C@H]2[C@@H](O)C[C@H](O[C@H]3[C@@H](O)C[C@H](O[C@H]4CC[C@@]5(C)[C@H](CC[C@@H]6[C@@H]5C[C@@H](O)[C@]5(C)[C@@H](C7=CC(=O)OC7)CC[C@]65O)C4)O[C@@H]3C)O[C@@H]2C)C[C@H](O)[C@@H]1O [digoxin],effect of concomitant OXBRYTA on digoxin (P-gp substrate),P-gp,did not alter digoxin to a clinically relevant extent
Cc1ncc2n1-c1ccc(Cl)cc1C(c1ccccc1F)=NC2 [midazolam],observed exposure increase of midazolam with voxelotor,CYP3A4,1.6 fold
same,increase of overall exposure of midazolam in the presence of voxelotor,CYP3A4; [1],63%
